Non-standard residues stand in square brackets, D forms with d. Residues, ends and D or L forms follow the SMILES beside them. pY = N[C@@H](Cc1ccc(OP(=O)(O)O)cc1)C(=O)O
How the values were obtained:
Assay in all cases: biochemical
Assay type in all cases: binding
SRC = target: T1, SRC (Homo sapiens, UniProt P12931)
T1 construct: made in house; host or cells: HEK293 (transient transfection), unpurified extract

LCK = target: T2, LCK (Homo sapiens, UniProt P06239)
T2 construct: the DNA-tagged SH2 domain concentrations used in this study were <0.1 nM; made in house; host or cells: HEK293 (transient transfection, unpurified extract)
T2 sequence (P06239 127-224 limits assumed): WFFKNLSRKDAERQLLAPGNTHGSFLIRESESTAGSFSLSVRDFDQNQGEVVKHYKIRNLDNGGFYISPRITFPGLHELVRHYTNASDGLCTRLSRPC

HCK = target: T3, HCK (Homo sapiens, UniProt P08631)
T3 construct: the DNA-tagged SH2 domain concentrations used in this study were <0.1 nM; made in house; host or cells: HEK293 (transient transfection, unpurified extract)
T3 sequence (P08631 144-241 limits assumed): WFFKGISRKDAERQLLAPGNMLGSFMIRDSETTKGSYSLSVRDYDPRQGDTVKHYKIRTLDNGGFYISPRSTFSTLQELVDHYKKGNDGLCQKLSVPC

SOCS7 = target: T4, SOCS7 (Homo sapiens, UniProt O14512)
T4 construct: made in house; host or cells: HEK293 (transient transfection), unpurified extract
T4 sequence (O14512 1-581): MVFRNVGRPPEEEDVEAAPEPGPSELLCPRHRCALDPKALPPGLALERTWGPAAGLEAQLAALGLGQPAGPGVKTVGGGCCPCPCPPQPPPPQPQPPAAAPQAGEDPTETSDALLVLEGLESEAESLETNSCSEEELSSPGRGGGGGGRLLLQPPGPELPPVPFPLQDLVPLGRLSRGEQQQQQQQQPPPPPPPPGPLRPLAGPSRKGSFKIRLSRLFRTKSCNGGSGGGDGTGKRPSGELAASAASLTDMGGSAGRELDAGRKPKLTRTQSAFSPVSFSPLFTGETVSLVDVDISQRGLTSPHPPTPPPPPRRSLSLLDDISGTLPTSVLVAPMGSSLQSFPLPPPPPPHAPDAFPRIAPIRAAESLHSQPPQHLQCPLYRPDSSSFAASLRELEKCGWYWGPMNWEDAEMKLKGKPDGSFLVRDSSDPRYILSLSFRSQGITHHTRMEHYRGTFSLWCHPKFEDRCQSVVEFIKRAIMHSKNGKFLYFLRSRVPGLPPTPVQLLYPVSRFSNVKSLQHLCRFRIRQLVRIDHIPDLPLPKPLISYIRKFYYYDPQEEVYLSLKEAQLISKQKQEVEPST

SOCS2 = target: T5, SOCS2 (Homo sapiens, UniProt O14508)
T5 construct: made in house; host or cells: HEK293 (transient transfection), unpurified extract
T5 sequence (O14508 1-198): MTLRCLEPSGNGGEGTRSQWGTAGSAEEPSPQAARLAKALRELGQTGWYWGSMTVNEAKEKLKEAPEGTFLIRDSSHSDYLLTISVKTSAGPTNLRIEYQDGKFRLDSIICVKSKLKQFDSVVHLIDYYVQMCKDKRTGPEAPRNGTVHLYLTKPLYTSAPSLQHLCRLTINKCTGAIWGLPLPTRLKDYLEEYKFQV

SOCS6 = target: T6, SOCS6 (Homo sapiens, UniProt O14544)
T6 construct: made in house; host or cells: HEK293 (transient transfection), unpurified extract
T6 sequence (O14544 1-535): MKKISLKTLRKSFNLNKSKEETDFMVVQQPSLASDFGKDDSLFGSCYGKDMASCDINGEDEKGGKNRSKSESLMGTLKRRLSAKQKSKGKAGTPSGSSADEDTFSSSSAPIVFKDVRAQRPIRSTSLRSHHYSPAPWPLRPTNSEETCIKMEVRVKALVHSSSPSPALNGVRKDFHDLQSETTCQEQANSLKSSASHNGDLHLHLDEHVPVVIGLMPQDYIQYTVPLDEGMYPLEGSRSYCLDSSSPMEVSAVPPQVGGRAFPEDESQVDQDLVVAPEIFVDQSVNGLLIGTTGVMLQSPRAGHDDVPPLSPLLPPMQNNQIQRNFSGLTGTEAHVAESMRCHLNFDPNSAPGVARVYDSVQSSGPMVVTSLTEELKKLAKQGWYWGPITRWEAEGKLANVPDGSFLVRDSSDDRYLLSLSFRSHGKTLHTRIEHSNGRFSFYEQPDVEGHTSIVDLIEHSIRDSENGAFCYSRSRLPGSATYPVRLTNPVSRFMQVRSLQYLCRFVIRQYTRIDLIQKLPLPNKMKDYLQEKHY

T1 sequence (P12931 whole entry): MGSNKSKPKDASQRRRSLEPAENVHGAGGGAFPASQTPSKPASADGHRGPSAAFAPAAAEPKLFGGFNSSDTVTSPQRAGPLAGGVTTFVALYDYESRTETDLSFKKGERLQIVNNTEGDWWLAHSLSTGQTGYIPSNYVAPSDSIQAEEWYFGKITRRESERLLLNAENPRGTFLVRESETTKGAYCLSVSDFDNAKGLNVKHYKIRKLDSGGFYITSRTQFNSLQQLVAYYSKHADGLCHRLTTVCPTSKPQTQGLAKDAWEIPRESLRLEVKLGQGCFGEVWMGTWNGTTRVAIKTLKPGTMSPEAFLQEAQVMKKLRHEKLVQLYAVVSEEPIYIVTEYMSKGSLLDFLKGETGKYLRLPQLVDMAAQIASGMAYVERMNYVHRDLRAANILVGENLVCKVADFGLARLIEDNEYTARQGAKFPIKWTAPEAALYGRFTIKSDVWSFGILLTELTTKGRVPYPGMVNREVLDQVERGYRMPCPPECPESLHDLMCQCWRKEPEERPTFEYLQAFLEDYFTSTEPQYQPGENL

| SMILES | Kd (SRC) [µM] | Kd (LCK) [µM] | Kd (HCK) [µM] | Kd (SOCS7) [µM] | Kd (SOCS2) [µM] | Kd (SOCS6) [µM] |
| --- | --- | --- | --- | --- | --- | --- |
| CC[C@H](C)[C@H](NC(=O)[C@@H]1CCCN1C(=O)[C@@H](NC(=O)[C@H](CCC(=O)O)NC(=O)[C@H](CCC(=O)O)NC(=O)[C@H](Cc1ccc(OP(=O)(O)O)cc1)NC(=O)[C@H](CCC(N)=O)NC(=O)[C@@H]1CCCN1C(=O)[C@H](CCC(=O)O)NC(C)=O)[C@@H](C)CC)C(=O)N[C@@H](Cc1ccc(O)cc1)C(=O)N[C@@H](CC(C)C)C(N)=O (Ac-EPQ[pY]EEIPIYL-NH2) | 2.71 ± 1.95 | 0.097 ± 0.0516 | 1.44 ± 0.475 |  |  |  |
| CC[C@H](C)[C@H](NC(=O)[C@H](Cc1ccc(O)cc1)NC(=O)[C@@H](NC(=O)[C@H](Cc1ccc(OP(=O)(O)O)cc1)NC(=O)[C@H](CC(N)=O)NC(=O)[C@H](CC(N)=O)NC(=O)CNC(=O)[C@H](CC(N)=O)NC(C)=O)C(C)C)C(=O)N[C@@H](CC(=O)O)C(=O)N1CCC[C@H]1C(=O)N[C@H](C(N)=O)[C@@H](C)O [Ac-NGNNpYVYIDPT-NH2] |  |  |  | 11.7 ± 0.822 | 4.2 ± 0.739 | 0.0206 ± 0.00433 |
